The values below are quoted from earlier work in patent US20130115246A1 (Lupin Atlantis Holdings, S.A., priority 2011, published 2013).

SMILES strings stand for the structures.

For the data set the following is noted: in vivo.

On to `CC(C)(Oc1ccc(C(=O)c2ccc(Cl)cc2)cc1)C(=O)O` [Fenofibric acid], for which the elimination half-life entry is given as “about 20 hours”.
